Laboratory results from patent US20240124460A1, “METHODS AND COMPOSITIONS FOR TARGETED PROTEIN DEGRADATION” (Ranok Therapeutics (Hangzhou) Co. Ltd., priority 2020, published 2024).
Where two headings read alike, the source gives them in different places.

How the values were obtained:
[1] = system: U-87 MG human glioblastoma; assay: U87 MG CCK-8 proliferation assay; format: cell-based; conditions: U-87 MG cells, read-out: U87MG CCK-8
Outline: (§1)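 Inhibition is derived from CCK-8 absorbance of compound-treated cells relative to DMSO-treated cells, after subtracting a cell-free medium/DMSO background. Test concentrations span 20 μM down to 1.02 nM in 3-fold steps, and lines are cultured as ATCC recommends.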

[2] = system: MV-4-11 human acute myeloid leukemia; assay: MV-4-11 CCK-8 proliferation assay; format: cell-based; conditions: MV-4-11 cells, 72 hr
Outline: as §1

HSP90α protein = target: T1, HSP90α protein (Homo sapiens, UniProt P07900); assay: HSP90α-binding FP (BODIPY) assay; conditions: FP competition with BODIPY-labeled RNK04010
T1 construct: purchased BPS Bioscience #50298
Outline: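 Fluorescence polarization measured competition with N-terminal human HSP90α, using either FITC-geldanamycin or BODIPY-labelled triazolone RNK04010 as tracer (5 nM final each). Compounds were tested in 2.5-fold dilutions from 20 μM to 5.2 nM, with incubation at 25 °C for 120 min (FITC) or 300 min (BODIPY).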

Compound | EC50 ([1]; Homo sapiens, U-87 MG, 72 h) | EC50 ([2]; Homo sapiens, MV4-11) | IC50 (HSP90α protein) | EC50 ([1]; 72 hr) | EC50 [2]
CCOc1cc(N2CCC(C(=O)N3CCC(CN4CCN(C(=O)O[C@H]5CC[C@H](Nc6cc(-n7nc(C(F)(F)F)c8c7CC(C)(C)CC8=O)ccc6C(N)=O)CC5)CC4)CC3)CC2)ccc1Nc1ncc2c(n1)N(C)c1ccccc1C(=O)N2C [Compound 121, (1R,4R)-4-((2-carbamoyl-5-(6,6-dimethyl-4-oxo-3-(trifluoromethyl)-4,5,6,7-tetrahydro-1H-indazol-1-yl)phenyl)amino)cyclohexyl 4-((1-(1-(4-((5,11-dimethyl-6-oxo-6,11-dihydro-5H-benzo[e]pyrimido[5,4-b][1,4]diazepin-2-yl)amino)-3-ethoxyphenyl)piperidine-4-carbonyl)piperidin-4-yl)methyl)piperazine-1-carboxylate] | > 1 µM | > 1 µM | > 1 µM | – | –
CCOc1cc(N2CCC(C(=O)N3CCC(CN4CCN(C(=O)CNC(=O)O[C@H]5CC[C@H](Nc6cc(-n7nc(C(F)(F)F)c8c7CC(C)(C)CC8=O)ccc6C(N)=O)CC5)CC4)CC3)CC2)ccc1Nc1ncc2c(n1)N(C)c1ccccc1C(=O)N2C [Compound 122, (1R,4R)-4-((2-carbamoyl-5-(6,6-dimethyl-4-oxo-3-(trifluoromethyl)-4,5,6,7-tetrahydro-1H-indazol-1-yl)phenyl)amino)cyclohexyl (2-(4-((1-(1-(4-((5,11-dimethyl-6-oxo-6,11-dihydro-5H-benzo[e]pyrimido[5,4-b][1,4]diazepin-2-yl)amino)-3-ethoxyphenyl)piperidine-4-carbonyl)piperidin-4-yl)methyl)piperazin-1-yl)-2-oxoethyl)carbamate] | > 1 µM | 0.1 to 1 µM | > 1 µM | – | –
(1R,4R)-4-((2-carbamoyl-5-(6,6-dimethyl-4-oxo-3-(trifluoromethyl)-4,5,6,7-tetrahydro-1H-indazol-1-yl)phenyl)amino)cyclohexyl 4-(1-(1-(3-ethoxy-4-((5-methyl-11-(methylsulfonyl)-6-oxo-6,11-dihydro-5H-benzo[e]pyrimido[5,4-b][1,4]diazepin-2-yl)amino)phenyl)piperidine-4-carbonyl)piperidin-4-yl)piperazine-1-carboxylate [Compound 118] | – | – | > 1 µM | > 1 µM | 0.1 to 1 µM
(1R,4R)-4-((2-carbamoyl-5-(6,6-dimethyl-4-oxo-3-(trifluoromethyl)-4,5,6,7-tetrahydro-1H-indazol-1-yl)phenyl)amino)cyclohexyl 4-(1-(4-((5,11-dimethyl-6-oxo-6,11-dihydro-5H-benzo[e]pyrimido[5,4-b][1,4]diazepin-2-yl)amino)-3-ethoxyphenyl)piperidine-4-carbonyl)piperazine-1-carboxylate [Compound 104] | – | – | > 1 µM | > 1 µM | > 1 µM
(1R,4R)-4-((2-carbamoyl-5-(6,6-dimethyl-4-oxo-3-(trifluoromethyl)-4,5,6,7-tetrahydro-1H-indazol-1-yl)phenyl)amino)cyclohexyl (3-(1-(4-((5,11-dimethyl-6-oxo-6,11-dihydro-5H-benzo[e]pyrimido[5,4-b][1,4]diazepin-2-yl)amino)-3-ethoxyphenyl)piperidine-4-carboxamido)propyl)carbamate [Compound 102] | – | – | > 1 µM | > 1 µM | 0.1 to 1 µM

Now from value to compound, other results behind:

EC50 ([1]; Homo sapiens, U-87 MG, 72 h) | EC50 ([2]; Homo sapiens, MV4-11) | IC50 (HSP90α protein) | Compound | EC50 ([1]; 72 hr) | EC50 [2]
> 1 µM | 0.1 to 1 µM | > 1 µM | CCOc1cc(N2CCC(C(=O)N3CCN(C(=O)O[C@H]4CC[C@H](Nc5cc(-n6nc(C(F)(F)F)c7c6CC(C)(C)CC7=O)ccc5C(N)=O)CC4)CC3)CC2)ccc1Nc1ncc2c(n1)N(S(C)(=O)=O)c1ccccc1C(=O)N2C [Compound 106, (1R,4R)-4-((2-carbamoyl-5-(6,6-dimethyl-4-oxo-3-(trifluoromethyl)-4,5,6,7-tetrahydro-1H-indazol-1-yl)phenyl)amino)cyclohexyl 4-(1-(3-ethoxy-4-((5-methyl-11-(methylsulfonyl)-6-oxo-6,11-dihydro-5H-benzo[e]pyrimido[5,4-b][1,4]diazepin-2-yl)amino)phenyl)piperidine-4-carbonyl)piperazine-1-carboxylate] | – | –
0.1 to 1 µM | < 0.1 µM | 0.1 to 1 µM | CCOc1cc(N2CCC(C(=O)N3CCC(CN4CCN(Cc5ccc(-n6c(C(=O)NC(C)C(F)(F)F)nnc6-c6cc(CC)c(O)cc6O)cc5)CC4)CC3)CC2)ccc1Nc1ncc2c(n1)N(C)c1ccccc1C(=O)N2C (stereo not drawn) [Compound 114, 4-(4-((4-((1-(1-(4-((5,11-dimethyl-6-oxo-6,11-dihydro-5H-benzo[e]pyrimido[5,4-b][1,4]diazepin-2-yl)amino)-3-ethoxyphenyl)piperidine-4-carbonyl)piperidin-4-yl)methyl)piperazin-1-yl)methyl)phenyl)-5-(5-ethyl-2,4-dihydroxyphenyl)-N-(1,1,1-trifluoropropan-2-yl)-4H-1,2,4-triazole-3-carboxamide] | – | –
> 1 µM | 0.1 to 1 µM | > 1 µM | CCOc1cc(N2CCC(C(=O)NCCOCCOCCNC(=O)O[C@H]3CC[C@H](Nc4cc(-n5nc(C(F)(F)F)c6c5CC(C)(C)CC6=O)ccc4C(N)=O)CC3)CC2)ccc1Nc1ncc2c(n1)N(S(C)(=O)=O)c1ccccc1C(=O)N2C [Compound 116, (1R,4R)-4-((2-carbamoyl-5-(6,6-dimethyl-4-oxo-3-(trifluoromethyl)-4,5,6,7-tetrahydro-1H-indazol-1-yl)phenyl)amino)cyclohexyl (2-(2-(2-(1-(3-ethoxy-4-((5-methyl-11-(methylsulfonyl)-6-oxo-6,11-dihydro-5H-benzo[e]pyrimido[5,4-b][1,4]diazepin-2-yl)amino)phenyl)piperidine-4-carboxamido)ethoxy)ethoxy)ethyl)carbamate] | – | –
> 1 µM | 0.1 to 1 µM | > 1 µM | CCOc1cc(N2CCC(C(=O)N3CCC(CN4CCN(C(=O)O[C@H]5CC[C@H](Nc6cc(-n7nc(C(F)(F)F)c8c7CC(C)(C)CC8=O)ccc6C(N)=O)CC5)CC4)CC3)CC2)ccc1Nc1ncc2c(n1)N(S(C)(=O)=O)c1ccccc1C(=O)N2C [Compound 117, (1R,4R)-4-((2-carbamoyl-5-(6,6-dimethyl-4-oxo-3-(trifluoromethyl)-4,5,6,7-tetrahydro-1H-indazol-1-yl)phenyl)amino)cyclohexyl 4-((1-(1-(3-ethoxy-4-((5-methyl-11-(methylsulfonyl)-6-oxo-6,11-dihydro-5H-benzo[e]pyrimido[5,4-b][1,4]diazepin-2-yl)amino)phenyl)piperidine-4-carbonyl)piperidin-4-yl)methyl)piperazine-1-carboxylate] | – | –
> 1 µM | < 0.1 µM | > 1 µM | CCOc1cc(N2CCC(C(=O)N3CCC(CN4CCN(C(=O)CNC(=O)O[C@H]5CC[C@H](Nc6cc(-n7nc(C(F)(F)F)c8c7CC(C)(C)CC8=O)ccc6C(N)=O)CC5)CC4)CC3)CC2)ccc1Nc1ncc2c(n1)N(S(C)(=O)=O)c1ccccc1C(=O)N2C [Compound 119, (1R,4R)-4-((2-carbamoyl-5-(6,6-dimethyl-4-oxo-3-(trifluoromethyl)-4,5,6,7-tetrahydro-1H-indazol-1-yl)phenyl)amino)cyclohexyl (2-(4-((1-(1-(3-ethoxy-4-((5-methyl-11-(methylsulfonyl)-6-oxo-6,11-dihydro-5H-benzo[e]pyrimido[5,4-b][1,4]diazepin-2-yl)amino)phenyl)piperidine-4-carbonyl)piperidin-4-yl)methyl)piperazin-1-yl)-2-oxoethyl)carbamate] | – | –
> 1 µM | 0.1 to 1 µM | > 1 µM | CCOc1cc(N2CCC(C(=O)NCCOCCOCCNC(=O)O[C@H]3CC[C@H](Nc4cc(-n5nc(C(F)(F)F)c6c5CC(C)(C)CC6=O)ccc4C(N)=O)CC3)CC2)ccc1Nc1ncc2c(n1)N(C)c1ccccc1C(=O)N2C [Compound 120, (1R,4R)-4-((2-carbamoyl-5-(6,6-dimethyl-4-oxo-3-(trifluoromethyl)-4,5,6,7-tetrahydro-1H-indazol-1-yl)phenyl)amino)cyclohexyl (2-(2-(2-(1-(4-((5,11-dimethyl-6-oxo-6,11-dihydro-5H-benzo[e]pyrimido[5,4-b][1,4]diazepin-2-yl)amino)-3-ethoxyphenyl)piperidine-4-carboxamido)ethoxy)ethoxy)ethyl)carbamate] | – | –
< 0.1 µM | < 0.1 µM | < 0.1 µM | CCNC(=O)c1nnc(-c2cc(CC)c(O)cc2O)n1-c1ccc(CN2CCN(CC3CCN(C(=O)C4CCN(c5ccc(Nc6ncc7c(n6)N(C)c6ccccc6C(=O)N7C)c(OCC)c5)CC4)CC3)CC2)cc1 [Compound 134, 4-(4-((4-((1-(1-(4-((5,11-dimethyl-6-oxo-6,11-dihydro-5H-benzo[e]pyrimido[5,4-b][1,4]diazepin-2-yl)amino)-3-ethoxyphenyl)piperidine-4-carbonyl)piperidin-4-yl)methyl)piperazin-1-yl)methyl)phenyl)-N-ethyl-5-(5-ethyl-2,4-dihydroxyphenyl)-4H-1,2,4-triazole-3-carboxamide] | – | –
